We go through 12 compounds from patent US10450274B2, “Quinoline compounds, preparation methods thereof, and uses thereof as urate transporter inhibitor drug” (HINOVA PHARMACEUTICALS INC., priority 2015, dated 2019).

This assay deals with T1, hURAT1 (Homo sapiens, UniProt Q96S37).
T1 sequence (Q96S37 1-553): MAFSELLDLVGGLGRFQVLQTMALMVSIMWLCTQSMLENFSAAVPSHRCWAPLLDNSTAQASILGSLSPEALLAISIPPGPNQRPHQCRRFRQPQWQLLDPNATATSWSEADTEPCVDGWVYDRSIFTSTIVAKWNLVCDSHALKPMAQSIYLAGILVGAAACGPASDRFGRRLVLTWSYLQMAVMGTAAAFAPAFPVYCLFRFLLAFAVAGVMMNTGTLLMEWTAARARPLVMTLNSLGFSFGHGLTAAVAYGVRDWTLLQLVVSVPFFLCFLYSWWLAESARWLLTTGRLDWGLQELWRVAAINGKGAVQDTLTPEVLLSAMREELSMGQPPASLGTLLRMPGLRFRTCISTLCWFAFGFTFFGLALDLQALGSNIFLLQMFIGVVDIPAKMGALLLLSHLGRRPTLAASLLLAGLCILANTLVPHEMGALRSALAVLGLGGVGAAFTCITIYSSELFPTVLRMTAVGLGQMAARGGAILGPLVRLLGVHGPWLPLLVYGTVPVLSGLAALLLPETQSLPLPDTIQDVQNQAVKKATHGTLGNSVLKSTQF
In words: Inhibitory activity against URAT1: 14C-labelled uric acid uptake in HEK-293t cells stably expressing hURAT1. It counts as cell-based. An excerpt:
• Test example: Determination of the inhibitory activity of compounds according to the present invention against URAT1 Experimental Materials • FBS (Invitrogen, Cat. No. 10099141) • Trypsin (Invitrogen, Cat. No. 25200056) • DPBS (Invitrogen, Cat. No. 14190250) • DMEM (Invitrogen, Cat. No. 10564) • Penicillin-Streptomycin (Invitrogen, Cat. No. 15070-063) • TransIT-293 Transfection Reagent (MIRUS BIO, Cat. No. MIR2706) • Opti-MEM® I Reduced Serum Medium (Invitrogen, Cat. No. 31985-070) • URAT1 plasmid (Genecopoeia, Cat. No. EX-T4563-M03) • Uric acid [8-14C] (ARC, Cat. No. ARC0513-250UCI) • Ultima Gold™ XR (PerkinElmer, Cat. No. 6013111) • Benzbromarone (J&K Scientific, Cat. No. 3562-84-3) • D-Gluconic acid sodium salt (Aladdin, Cat. No. 527-07-1) • Potassium D-gluconate (Aladdin, Cat. No. 299-27-4) • Calcium gluconate (Aladdin, Cat. No. 299-28-5) • DMSO (Sigma, Cat. No. D2650) • Tube, 15 ml (Greiner, Cat. No. 07030115) • Tube, 50 ml (BD Falcon, Cat. No. 352098) • Poly-D-lysine 96-well microplates (BD, Cat. No. 356461) • Isoplate-96 Microplate (PERKIN ELMER, Cat. No. 6005040) Experimental Method:
Cell Culture: • 1. The HEK-293t cells that expressed the stable expression of hURAT1 were cultured in DMEM medium containing 10% FBS and 1% P/S, and incubated overnight in the incubator at 37° C. under 5% carbon dioxide. • 2. the culture medium was removed, and the cells were washed with PBS, and then the pancreatin was added to digest for 2 minutes. After the cell is separated from the dish, 10 ml of medium was added to terminate digestion. • 3. The cells were placed into a centrifugal apparatus and centrifugated for 2 minutes at the speed of 1000 rpm, followed by the addition of fresh 10 mL medium to resuspend the cells, and calculate the number of cells. The number of cells was adjusted to 4×10^5 cells/mL. • 4. the above counted cells were inoculated into the 96-well plate at 100 μL/well. • 5. The 96-well plate with inoculated cells was placed in a 37° C. cell incubator and cultivated overnight.
The uric acid absorption experiment labeled with isotope C14: • 1. 5 mL of Cl-free HBSS buffer was added to a 15 mL centrifuge tube, followed by the addition of the uric acid labeled with C14, and the concentration of uric acid was 2 uCi/ml. • 2. The medium in the 96-well plate that was previously cultivated overnight was removed, and the plate was washed three times with […] preheated Cl-free HBSS buffer. • 3. The buffer in the well-washed 96-well plate was removed. • 4. […] Cl-free HBSS buffer containing C-14 labeled uric acid was added into each well in the cleaned 96-well plate, and then DMSO solution of the compound that needs to be tested was added. • 5. After the 96-well plate stood for 5 minutes at room temperature, all the liquid in it was removed. • 6. […] precooled Cl-free HBSS buffer was added to wash the plate three times. • 7. After the remained liquid in the plates was completely removed, 50 μL cell lysis was added to each well, and the plate was agitated on the mixer at a speed of 600 revolutions/min for 10 minutes. • 8. After 50 μL Ultima Gold™ XR scitillation cocktail fluid was added, the plate was continued to agitate for 10 minutes. The well-agitated plate was sealed, and the data was read on MicroBeta Trilux. • 9. The test compound was dissolved in DMSO, and DMSO at the same concentration was added to the HEK293/hURAT1 cell well without test compounds. […] The radiation value obtained from the well containing DMSO is considered to be 100% of the cell uptake. The IC50 values of compounds can be calculated by the inhibition rate at different concentrations.
Among them, reference compound 1 was synthesized according to the method described in patent WO 2011/159839 A2. Reference compound 2 and reference compound 3 were synthesized according to the method described in patent WO 2014/183555 A1, and they were head-to-head tested with compounds 83 and 129 respectively under the same conditions.

The mark [1] stands for this setting: HEK-293t/hURAT1 cells, 14C uric acid uptake, 5 minutes at room temperature, Ref Cpd 2, 83, Ref Cpd 3 and 129 are averages of head-to-head tests, read-out: IC50 (nM) of hURAT1 inhibitory activity.

Several values for one entry are separate records, joined by “and”; a condition that tells them apart may be missing. Equal values may be shown once. Read-outs that look alike come from different tables or passages of the source.

By IC50 is commonly meant the point on the concentration scale where inhibition reaches its midpoint. For `CCCC(CCC)(Sc1ccnc2ccc(Br)cc12)C(=O)O` [Compound 114, 2-(6-bromoquinolin-4-ylthio)-2-propylpentanoic acid], under setting [1], the IC50 was determined as 203 nM.
Same read-out and setting: as for `CCC(CC)(Sc1ccnc2ccc(-c3ccnc(C)c3)cc12)C(=O)O` [Compound 121, 2-(6-(2-methylpyridin-4-yl)-quinolin-4-ylthio)-2-ethylbutanoic acid], the figure is 360 nM.
Take `CCC(CC)(Sc1ccnc2ccc(Br)cc12)C(=O)O` [Compound 83, 2-(6-bromoquinolin-4-ylthio)-2-ethylbutanoic acid]: the IC50 is 70.6 nM under setting [1]; 70.6 nM (average of the multiple head-to-head comparison tests, Table 2, read-out: Average (IC50 of multiple determinations)); 42.5 nM and 117 nM and 89 nM and 93 nM and 56 nM and 58 nM and 38.9 nM (single determinations of multiple head-to-head tests, Ref cpd 2 vs Cpd 83, read-out: Multiple determination data (IC50)). The “inhibitory effect on uric acid transporter URAT1 (in words)” value (statement in the text on Table 1) was “better inhibitory activity against the uric acid transporter than compound 1”.
On to “2-(6-(3-fluoropyridin-4-yl)-quinolin-4-ylthio)-2-ethylbutanoic acid [Compound 123]”, for which the IC50 under setting [1] worked out at 1400 nM.
On to `CCC(CC)(Sc1ccnc2ccc(-c3cccc(OC4CCC4)c3)cc12)C(=O)O` [Compound 111, 2-(6-(3-cyclobutyloxy-phenyl)-quinolin-4-ylthio)-2-ethylbutanoic acid], for which, under setting [1], the IC50 was 267 nM.
As to “2-(6-(2-fluoropyridin-4-yl)-quinolin-4-ylthio)-2-ethylbutanoic acid [Compound 118]”, the IC50 under setting [1] was determined as 36 nM.
Still for that read-out and setting: as for `CC(C)Oc1cccc(-c2ccc3nccc(SC(C)(C)C(=O)O)c3c2)c1` [Compound 103, 2-(6-(3-isopropoxy-phenyl)-quinolin-4-ylthio)-2-methylpropanoic acid], the figure is 37 nM; as for `CC(C)(Sc1ccnc2ccc(-c3ccnc(F)c3)cc12)C(=O)O` [Compound 117, 2-(6-(2-fluoropyridin-4-yl)-quinolin-4-ylthio)-2-methylpropanoic acid], 272 nM; as for `CCC(CC)(Sc1ccnc2ccc(-c3ccnc(OC)c3)cc12)C(=O)O` [Compound 116, 2-(6-(2-methoxypyridin-4-yl)quinolin-4-ylthio)-2-ethylbutanoic acid], 98 nM.
Consider `CCCC(CCC)(Sc1ccnc2ccc(-c3cccc(OCC)c3)cc12)C(=O)O` [Compound 108, 2-(6-(3-ethoxy-phenyl)-quinolin-4-ylthio)-2-propylpentanoic acid], for which the IC50 under setting [1] amounted to 523 nM.
`CC(C)(Sc1ccnc2ccc(C3CC3)cc12)C(=O)O` [Compound 1, 2-(6-cyclopropylquinolin-4-ylthio)-2-methylpropanoic acid]: under setting [1], the IC50 amounted to 486 nM.
As for `COc1ccccc1-c1ccc2nccc(SC(C)(C)C(=O)O)c2c1` [Compound 19, 2-(6-(2-methoxyphenyl)-quinolin-4-ylthio)-2-methylpropanoic acid], under setting [1], the IC50 was 472 nM.
